The conditions of series [1]: rat microdialysis, brain versus blood; cited from earlier work.
For series [2] the following is noted: male, Sprague-Dawley, rat, intravenous, n = 3, mean ± SD.
The conditions of series [3]: rat, cited from earlier work.
Series [4] is described as follows: Rat pharmacokinetics following an IV single bolus. It is filed as in vivo. The following applies: plasma, 1 mg/kg.
For series [5] the following is noted: humans; cited from earlier work.
The next series concerns parental MDCK cell. The following applies: parental MDCK cell assay; cited from earlier work.
The mark [6] stands for this setting: K puu liver, ratio of unbound liver concentration to unbound blood concentration at steady state.
[7] abbreviates: K puu muscle, ratio of unbound muscle concentration to unbound blood concentration at steady state.

SMILES strings stand for the structures. Where two headings read alike, the source gives them in different places.

The Kp is the ratio of the level in a tissue or fluid to that in plasma or blood. The term Vd denotes the apparent volume that relates the amount in the body to the concentration in plasma or blood. Low values mean little distribution into tissue, high ones wide distribution into tissue. A word on the clearance: it is a measure of how efficiently the substance is removed, as volume per time. Higher therefore signals a high capacity for elimination. Broadly, the half-life is how long it takes for the measured level to halve. With `CC12CC3CC(C)(C1)CC(N)(C3)C2` [Memantine, memantine], in series [1], the “reported K puu,brain” value is recorded as 1.80. The concentration ratio (Kp) in series [2] (setting [6]) came to 1.56. For the same compound, the Kp in series [2] (setting [7]) was 2.13. Besides, the “reported plasma CL” value in series [3] (ref 18, 19, 20, 21, 22, 23) was 69 mL/min/kg. For the same compound, in series [3] (ref 47), the “plasma CL” value is listed as “about 45 ml/min/kg” and the “renal CL” value is listed as “about 13 ml/min/kg”. In series [4], this compound had a distribution volume (Vd) of 7.36 ± 1.58 L/kg, a clearance of 60.5 ± 9.9 mL/min/kg and a half-life of 1.72 ± 0.03 h.

For the compound `C[C@H]1O[C@@H](O[C@H]2[C@@H](O)C[C@H](O[C@H]3[C@@H](O)C[C@H](O[C@H]4CC[C@@]5(C)[C@H](CC[C@@H]6[C@@H]5C[C@@H](O)[C@]5(C)[C@@H](C7=CC(=O)OC7)CC[C@]65O)C4)O[C@@H]3C)O[C@@H]2C)C[C@H](O)[C@@H]1O` [Digoxin, digoxin], in series [3] (ref 20, 26, 36, 37), the “reported plasma CL” value was 17.3 mL/min/kg. Moreover, in series [3] (ref 24, 25, 26, 27), the “reported plasma CL” value was 17.3 mL/min/kg. Besides, in series [3] (ref 26), the “non-renal CL (biliary excretion + hepatic metabolism) as share of total CL” value is 70%–80% and the “renal CL as share of total CL” value is 20%–30%.

In the case of `NCC1(CC(=O)O)CCCCC1` [Gabapentin, gabapentin], the concentration ratio (Kp) in series [2] (setting [6]) was 2.23. In addition, in series [2] (setting [7]), the partition ratio (Kp) came out at 1.39 ± 0.51. In series [4], this compound gave a distribution volume (Vd) of 0.451 ± 0.001 L/kg, a clearance of 1.53 ± 0.31 mL/min/kg and a half-life of 3.58 ± 0.87 h.

For `CC1COc2c(N3CCN(C)CC3)c(F)cc3c(=O)c(C(=O)O)cn1c23` (stereo not shown) [Ofloxacin, ofloxacin], in series [2] (setting [6]), the Kp was approximately 0.501. Also, the Kp in series [2] (setting [7]) came to 0.641 ± 0.206. For the same compound, the “reported plasma CL” value in series [3] (ref 20, 26, 36, 37) is 27.5 mL/min/kg. For the same compound, in series [3] (ref 36), the “non-renal CL (biliary excretion + metabolism) as share of total CL” value is recorded as “about 45%”, the “renal CL” value was “about 15 ml/min/kg”, the “renal CL as share of total CL” value is listed as 55% and the “total CL” value is 27.5 mL/min/kg.

As for `C=C[C@H]1C[N@@]2CC[C@H]1C[C@@H]2[C@@H](O)c1ccnc2ccc(OC)cc12` [Quinidine, quinidine], the concentration ratio (Kp) is 0.677 ± 0.27 in series [2] (setting [6]) and 1.75 ± 0.64 in series [2] (setting [7]).

As to `CC(C)NCC(O)COc1ccc(CC(N)=O)cc1` (stereo not shown) [Atenolol, atenolol], the “share eliminated via the kidneys” value in series [5] is recorded as more than 95%.

For `COc1ccc([C@@H]2Sc3ccccc3N(CCN(C)C)C(=O)[C@@H]2OC(C)=O)cc1` [Diltiazem, diltiazem], the “reported plasma CL” value in series [3] (ref 18, 19, 20, 21, 22, 23) is 90 mL/min/kg.

With `Cc1cc(=O)n(-c2ccccc2)n1C` [Antipyrine], the partition ratio (Kp) turned out to be 0.932 ± 0.178 in series [2] (setting [6]) and 0.771 ± 0.215 in series [2] (setting [7]). Also, the “reported plasma CL” value in series [3] (ref 24, 25, 26, 27) is 4.80 mL/min/kg.

Turning to `CC(C)NCC(O)COc1cccc2ccccc12` (stereo not shown) [Propranolol, propranolol], in series [3] (ref 18, 19, 20, 21, 22, 23), the “reported plasma CL” value was 70 to 90 mL/min/kg. For the same compound, in the series on parental MDCK cell, the P app was 11 ×10⁻⁶ cm/s.

Regarding `NC(=O)N1c2ccccc2C=Cc2ccccc21` [Carbamazepine, carbamazepine], the concentration ratio (Kp) was found to be 0.913 ± 0.169 in series [2] (setting [6]) and 1.02 ± 0.27 in series [2] (setting [7]). Also, the “reported plasma CL” value in series [3] (ref 24, 25, 26, 27) is 15.0 mL/min/kg. The “N-glucuronide as share of the administered dose” value in series [3] (ref 34) is given as 20%–30%. Further, the P app with parental MDCK cell was 27.5 ×10⁻⁶ cm/s.

For `COc1ccc(CN(CCN(C)C)c2ccccn2)cc1` [Pyrilamine, pyrilamine], the “reported K puu,brain” value in series [1] was 2.50. In addition, in series [4], the distribution volume (Vd) stood at 12.6 ± 1.6 L/kg, the clearance is 167 ± 24 mL/min/kg and the half-life was 2.16 ± 0.63 h.

Source of the values: publication PMC8502442 (Pharmacology Research & Perspectives, 2021).
